Source: EP4467141A1, “PYRAZOLO-QUINOLINES AS SELECTIVE INHIBITORS OF GENOTOXIC STRESS-INDUCED IKK/NF- KB PATHWAYS FOR CANCER THERAPY” (Max-Delbrück-Centrum für Molekulare Medizin in der …, priority 2023, dated 2024)

Tests used:
Assay in all cases: Kinase panel study
Format in all cases: biochemical
Conditions in all cases: read-out: Percentage of inhibition; for inhibition at 1 µM: 1000nM; for inhibition at 10 µM: 10000nM
[1] = target: T1, EPHB3 (Homo sapiens, UniProt P54753)
T1 construct: purchased Thermo Fisher Scientific
T1 sequence (P54753 34-998): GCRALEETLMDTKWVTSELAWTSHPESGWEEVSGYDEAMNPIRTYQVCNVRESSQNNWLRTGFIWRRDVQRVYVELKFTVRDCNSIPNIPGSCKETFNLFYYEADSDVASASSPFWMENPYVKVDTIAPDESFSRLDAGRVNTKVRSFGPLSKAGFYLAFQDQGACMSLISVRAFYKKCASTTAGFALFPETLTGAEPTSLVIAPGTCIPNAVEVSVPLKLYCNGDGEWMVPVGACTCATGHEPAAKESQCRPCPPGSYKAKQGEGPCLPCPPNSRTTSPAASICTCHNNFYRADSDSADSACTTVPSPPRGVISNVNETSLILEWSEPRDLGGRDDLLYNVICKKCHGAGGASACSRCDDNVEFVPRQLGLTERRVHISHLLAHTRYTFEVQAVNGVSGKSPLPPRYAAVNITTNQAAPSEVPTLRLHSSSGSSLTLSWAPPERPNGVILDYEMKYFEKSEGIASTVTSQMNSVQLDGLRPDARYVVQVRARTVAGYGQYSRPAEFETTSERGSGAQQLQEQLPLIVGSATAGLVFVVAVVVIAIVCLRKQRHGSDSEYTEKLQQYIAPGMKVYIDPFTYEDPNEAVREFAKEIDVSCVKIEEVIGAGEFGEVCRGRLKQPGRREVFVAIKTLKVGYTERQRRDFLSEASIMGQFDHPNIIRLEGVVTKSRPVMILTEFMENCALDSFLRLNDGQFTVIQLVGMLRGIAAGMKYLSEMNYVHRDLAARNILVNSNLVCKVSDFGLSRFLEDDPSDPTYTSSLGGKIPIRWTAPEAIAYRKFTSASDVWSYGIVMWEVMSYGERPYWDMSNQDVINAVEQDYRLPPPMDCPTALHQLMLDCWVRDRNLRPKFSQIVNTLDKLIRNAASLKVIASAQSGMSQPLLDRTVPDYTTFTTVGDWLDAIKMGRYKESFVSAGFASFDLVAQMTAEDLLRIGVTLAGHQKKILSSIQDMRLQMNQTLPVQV
Outline: (§1)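 A commercial kinase profiling service ran the assays according to its ZLyte or Adapta standard protocols. Compound was present at 10 µM or 1 µM, and kinase activity loss was expressed as percent inhibition.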

[2] = target: T2, CAMK1D (CaMKI delta) (Homo sapiens, UniProt Q8IU85)
T2 construct: purchased Thermo Fisher Scientific
Outline: as §1

[3] = target: T3, KDR (VEGFR2) (Homo sapiens, UniProt P35968)
T3 construct: purchased Thermo Fisher Scientific
T3 sequence (P35968 20-1356): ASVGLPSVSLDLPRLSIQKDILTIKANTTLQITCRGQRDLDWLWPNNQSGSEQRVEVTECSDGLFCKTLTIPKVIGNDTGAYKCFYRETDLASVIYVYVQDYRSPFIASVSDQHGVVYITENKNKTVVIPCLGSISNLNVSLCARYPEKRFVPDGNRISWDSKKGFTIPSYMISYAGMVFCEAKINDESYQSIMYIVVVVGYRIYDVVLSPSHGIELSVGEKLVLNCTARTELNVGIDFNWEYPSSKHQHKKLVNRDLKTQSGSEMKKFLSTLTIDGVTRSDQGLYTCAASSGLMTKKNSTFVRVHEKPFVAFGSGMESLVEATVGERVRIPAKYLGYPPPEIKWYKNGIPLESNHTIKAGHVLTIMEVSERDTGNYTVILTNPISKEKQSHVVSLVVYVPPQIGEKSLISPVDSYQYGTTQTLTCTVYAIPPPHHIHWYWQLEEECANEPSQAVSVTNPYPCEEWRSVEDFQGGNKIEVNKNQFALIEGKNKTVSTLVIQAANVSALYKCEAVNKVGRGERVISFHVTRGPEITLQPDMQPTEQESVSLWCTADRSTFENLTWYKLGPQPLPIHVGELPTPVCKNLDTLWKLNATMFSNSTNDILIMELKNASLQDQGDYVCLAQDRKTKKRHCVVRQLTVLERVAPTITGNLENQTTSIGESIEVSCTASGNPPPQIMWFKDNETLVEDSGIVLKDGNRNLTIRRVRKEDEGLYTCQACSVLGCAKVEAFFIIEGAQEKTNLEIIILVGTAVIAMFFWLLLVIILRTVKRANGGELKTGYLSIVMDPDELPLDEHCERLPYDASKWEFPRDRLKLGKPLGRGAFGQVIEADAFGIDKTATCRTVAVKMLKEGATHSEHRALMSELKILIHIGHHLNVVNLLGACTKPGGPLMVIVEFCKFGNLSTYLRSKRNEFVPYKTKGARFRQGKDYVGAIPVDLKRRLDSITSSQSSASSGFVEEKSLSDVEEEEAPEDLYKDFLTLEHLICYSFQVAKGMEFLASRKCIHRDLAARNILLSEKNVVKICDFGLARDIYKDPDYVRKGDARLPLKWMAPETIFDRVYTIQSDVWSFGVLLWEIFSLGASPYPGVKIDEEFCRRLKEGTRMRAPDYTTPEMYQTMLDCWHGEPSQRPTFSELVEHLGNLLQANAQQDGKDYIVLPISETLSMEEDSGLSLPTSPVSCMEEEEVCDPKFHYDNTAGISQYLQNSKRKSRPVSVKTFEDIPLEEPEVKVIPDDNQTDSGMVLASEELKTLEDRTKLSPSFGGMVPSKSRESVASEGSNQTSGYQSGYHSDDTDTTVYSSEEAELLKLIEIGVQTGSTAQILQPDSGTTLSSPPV
Outline: as §1

[4] = target: T4, GSK3B (GSK3 beta) (Homo sapiens, UniProt P49841)
T4 construct: purchased Thermo Fisher Scientific
T4 sequence (P49841 whole entry): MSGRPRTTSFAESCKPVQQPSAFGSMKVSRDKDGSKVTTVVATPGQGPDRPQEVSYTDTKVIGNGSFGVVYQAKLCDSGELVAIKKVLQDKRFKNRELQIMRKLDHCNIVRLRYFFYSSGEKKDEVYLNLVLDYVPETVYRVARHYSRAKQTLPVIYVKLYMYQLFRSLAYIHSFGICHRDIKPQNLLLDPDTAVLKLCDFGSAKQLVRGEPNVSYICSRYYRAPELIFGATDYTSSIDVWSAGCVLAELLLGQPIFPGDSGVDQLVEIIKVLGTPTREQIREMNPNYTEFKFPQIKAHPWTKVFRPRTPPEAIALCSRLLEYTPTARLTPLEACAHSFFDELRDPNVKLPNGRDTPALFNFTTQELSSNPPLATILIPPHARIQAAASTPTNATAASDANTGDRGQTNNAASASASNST
Outline: as §1

[5] = target: T5, PLK2 (Homo sapiens, UniProt Q9NYY3)
T5 construct: purchased Thermo Fisher Scientific
T5 sequence (Q9NYY3 whole entry): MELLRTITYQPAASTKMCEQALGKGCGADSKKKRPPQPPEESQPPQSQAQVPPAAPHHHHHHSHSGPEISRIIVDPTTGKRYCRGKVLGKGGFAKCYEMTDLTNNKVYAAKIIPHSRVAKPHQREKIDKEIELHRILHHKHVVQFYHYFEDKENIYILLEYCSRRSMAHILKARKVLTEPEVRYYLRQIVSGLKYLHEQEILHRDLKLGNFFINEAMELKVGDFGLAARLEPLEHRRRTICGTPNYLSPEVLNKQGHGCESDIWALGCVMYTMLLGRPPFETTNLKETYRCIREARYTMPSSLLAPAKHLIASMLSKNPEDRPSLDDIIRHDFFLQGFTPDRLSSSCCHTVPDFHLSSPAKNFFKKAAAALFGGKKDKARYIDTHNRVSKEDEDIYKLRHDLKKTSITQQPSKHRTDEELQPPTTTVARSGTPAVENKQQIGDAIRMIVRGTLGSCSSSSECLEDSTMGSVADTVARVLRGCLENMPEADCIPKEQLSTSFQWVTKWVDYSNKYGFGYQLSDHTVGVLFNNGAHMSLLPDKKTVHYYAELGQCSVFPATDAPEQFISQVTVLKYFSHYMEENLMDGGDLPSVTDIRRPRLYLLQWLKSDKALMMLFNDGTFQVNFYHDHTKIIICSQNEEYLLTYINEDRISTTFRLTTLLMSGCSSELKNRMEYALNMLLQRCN
Outline: as §1

[6] = target: T6, RPS6KB1 (p70S6K) (Homo sapiens, UniProt P23443)
T6 construct: purchased Thermo Fisher Scientific
T6 sequence (P23443 whole entry): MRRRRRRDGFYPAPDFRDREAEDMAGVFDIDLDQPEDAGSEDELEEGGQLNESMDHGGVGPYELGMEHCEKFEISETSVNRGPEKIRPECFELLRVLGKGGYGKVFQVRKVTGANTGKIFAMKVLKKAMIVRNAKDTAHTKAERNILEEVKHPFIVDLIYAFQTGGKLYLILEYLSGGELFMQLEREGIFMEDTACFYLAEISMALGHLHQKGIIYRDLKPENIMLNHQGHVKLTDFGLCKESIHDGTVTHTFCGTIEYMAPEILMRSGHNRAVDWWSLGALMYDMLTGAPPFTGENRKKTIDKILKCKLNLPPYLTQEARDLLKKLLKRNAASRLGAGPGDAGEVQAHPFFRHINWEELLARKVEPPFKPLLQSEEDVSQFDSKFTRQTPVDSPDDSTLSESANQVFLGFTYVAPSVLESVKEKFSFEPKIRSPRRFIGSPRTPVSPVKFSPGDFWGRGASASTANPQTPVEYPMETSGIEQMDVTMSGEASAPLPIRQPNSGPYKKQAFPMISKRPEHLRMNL
Outline: as §1

[7] = target: T7, ZAP70 (Homo sapiens, UniProt P43403)
T7 construct: purchased Thermo Fisher Scientific
T7 sequence (P43403 1-619): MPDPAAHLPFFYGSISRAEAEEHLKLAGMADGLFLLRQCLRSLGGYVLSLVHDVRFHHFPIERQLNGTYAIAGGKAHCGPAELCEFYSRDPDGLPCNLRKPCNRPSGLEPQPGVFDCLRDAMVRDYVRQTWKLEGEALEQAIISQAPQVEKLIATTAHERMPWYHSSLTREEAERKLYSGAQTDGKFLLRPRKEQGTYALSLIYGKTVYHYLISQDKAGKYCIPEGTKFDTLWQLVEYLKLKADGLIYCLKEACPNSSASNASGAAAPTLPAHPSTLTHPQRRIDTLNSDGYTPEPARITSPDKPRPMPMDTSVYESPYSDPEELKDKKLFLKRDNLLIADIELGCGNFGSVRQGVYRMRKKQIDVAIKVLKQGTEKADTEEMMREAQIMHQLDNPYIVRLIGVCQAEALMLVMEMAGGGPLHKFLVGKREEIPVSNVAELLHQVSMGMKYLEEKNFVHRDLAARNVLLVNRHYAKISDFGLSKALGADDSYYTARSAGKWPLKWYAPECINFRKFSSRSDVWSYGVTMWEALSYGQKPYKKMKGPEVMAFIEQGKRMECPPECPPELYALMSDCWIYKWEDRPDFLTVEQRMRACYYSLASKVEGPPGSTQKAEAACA
Outline: as §1

[8] = target: T8, MARK2 (Homo sapiens, UniProt Q7KZI7)
T8 construct: purchased Thermo Fisher Scientific
T8 sequence (Q7KZI7 whole entry): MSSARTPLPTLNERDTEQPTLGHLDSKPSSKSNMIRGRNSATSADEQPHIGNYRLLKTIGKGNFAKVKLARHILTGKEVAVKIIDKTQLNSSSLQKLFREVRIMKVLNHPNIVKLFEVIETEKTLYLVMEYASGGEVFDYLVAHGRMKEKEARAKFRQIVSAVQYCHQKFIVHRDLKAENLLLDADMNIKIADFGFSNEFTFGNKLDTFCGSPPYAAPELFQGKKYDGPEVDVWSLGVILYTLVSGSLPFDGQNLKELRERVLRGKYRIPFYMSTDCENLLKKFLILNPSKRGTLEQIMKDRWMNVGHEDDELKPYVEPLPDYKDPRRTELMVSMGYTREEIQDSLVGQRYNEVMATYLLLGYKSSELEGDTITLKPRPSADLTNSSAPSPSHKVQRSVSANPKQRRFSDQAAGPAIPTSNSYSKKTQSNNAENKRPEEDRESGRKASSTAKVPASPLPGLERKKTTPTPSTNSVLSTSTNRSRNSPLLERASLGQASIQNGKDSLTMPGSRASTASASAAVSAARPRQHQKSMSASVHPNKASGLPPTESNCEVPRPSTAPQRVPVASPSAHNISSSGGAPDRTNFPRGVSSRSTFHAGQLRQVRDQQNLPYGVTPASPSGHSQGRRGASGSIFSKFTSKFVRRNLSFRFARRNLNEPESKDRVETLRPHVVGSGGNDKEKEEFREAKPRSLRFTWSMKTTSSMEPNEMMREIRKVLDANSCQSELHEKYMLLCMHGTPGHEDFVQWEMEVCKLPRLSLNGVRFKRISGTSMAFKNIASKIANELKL
Outline: as §1

[9] = target: T9, MELK (Homo sapiens, UniProt Q14680)
T9 construct: purchased Thermo Fisher Scientific
T9 sequence (Q14680 whole entry): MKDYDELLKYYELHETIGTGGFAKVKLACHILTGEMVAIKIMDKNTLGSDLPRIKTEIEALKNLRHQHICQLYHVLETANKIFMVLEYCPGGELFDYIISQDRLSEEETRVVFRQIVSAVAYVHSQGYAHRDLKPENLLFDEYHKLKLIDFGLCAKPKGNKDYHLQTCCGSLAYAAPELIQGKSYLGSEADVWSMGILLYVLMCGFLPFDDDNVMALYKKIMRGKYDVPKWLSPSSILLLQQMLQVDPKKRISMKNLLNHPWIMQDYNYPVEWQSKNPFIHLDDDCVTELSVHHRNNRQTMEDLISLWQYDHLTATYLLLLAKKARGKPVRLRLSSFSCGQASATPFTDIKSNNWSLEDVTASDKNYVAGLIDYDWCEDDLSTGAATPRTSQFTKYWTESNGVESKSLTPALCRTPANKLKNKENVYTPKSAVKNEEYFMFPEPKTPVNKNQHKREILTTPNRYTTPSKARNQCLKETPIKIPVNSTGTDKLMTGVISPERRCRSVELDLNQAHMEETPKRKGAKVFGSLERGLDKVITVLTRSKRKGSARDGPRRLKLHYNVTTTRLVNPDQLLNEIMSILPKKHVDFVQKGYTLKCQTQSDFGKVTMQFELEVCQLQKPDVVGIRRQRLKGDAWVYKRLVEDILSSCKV
Outline: as §1

Structure (SMILES) | inhibition at 1 µM [1] [%] | inhibition at 10 µM [1] [%] | inhibition at 1 µM [2] [%] | inhibition at 10 µM [2] [%] | inhibition at 1 µM [3] [%] | inhibition at 10 µM [3] [%] | inhibition at 1 µM [4] [%] | inhibition at 10 µM [4] [%] | inhibition at 1 µM [5] [%] | inhibition at 10 µM [5] [%] | inhibition at 1 µM [6] [%] | inhibition at 10 µM [6] [%] | inhibition at 1 µM [7] [%] | inhibition at 10 µM [7] [%] | inhibition at 1 µM [8] [%] | inhibition at 10 µM [8] [%] | inhibition at 1 µM [9] [%] | inhibition at 10 µM [9] [%]
COc1ccc2c(c1OC)c(=O)n1c3ccc(O)cc3c3ccnc2c31 [MW01, 5-Hydroxy-10,11-dimethoxy-9H-benzo[c]indolo[3,2,1-ij][1,5]naphthyridin-9-one] | 1 | 11 | 5 | 9 | 24 | 54 | 27 | 52 | -1 | -2 | 19 | 15 | 12 | 16 | 10 | 5 | 26 | 54
COc1ccc2cc3c(N)nn(C(=O)c4cccc(N(C)C)c4)c3nc2c1 [MW05, (3-Amino-7-methoxypyrazolo[3,4-b]quinolin-1-yl)-[3-(dimethylamino)phenyl]methanone] | 6 | 5 | 1 | -1 | 7 | -15 | 6 | 14 | 3 | -2 | 12 | 7 | 15 | 11 | 3 | 5 | 28 | 48
